From patent US11407763B2, “Tryptophan hydroxylase inhibitor and pharmaceutical composition including same” (GWANGJU INSTITUTE OF SCIENCE AND TECHNOLOGY, priority 2017, dated 2022) come the findings set out here.

pIC50: −log10 of the molar value. Structures can show the parent of a compound that is named as a salt.

Data set [1] concerns DSS colitis. Type of data set: in vivo, C57BL/6J mice. The following applies: mouse. Here is the method: C57BL/6J (Jackson Lab) male mice weighing 25±2 g at 9 weeks of age were used, and all the mice were fed freely by providing standard experimental feed. The compound of Example 53 and LX1606 were dissolved in 0.25% methylcellulose (MC) solution, which was orally administered to mice at the dose of 100 and 300 mg/kg/time using a 1 mL syringe. The compound of Example 53 and LX1606 were administered for 7 days, starting one day prior to dextran sulfate sodium (DSS) administration. Before and after the administration, the samples of colon tissue were collected from each mouse treated with the compound of Example 53 or the control drug (LX1606) to confirm clinical symptoms. Data are expressed as mean±standard error of mean (SEM), and all statistical analyses were performed using GraphPad Prism (version 5.0, GraphPad Software, La Jolla, Calif.). Differences in mean between groups were statistically analyzed by two-way analysis of variance (ANOVA) and multiple comparison tests to reveal the differences between the experimental groups. […]
Colon permeability was measured to confirm if the compound of the present invention affected the amelioration of inflammatory bowel disorder. […] The importance of the intestinal epithelial layer was measured by the changes in intercellular permeability and intimate junction function observed in inflammatory bowel disease (IBD) and colorectal cancer. […]

The subject of data set [2] is DSS colitis. Description: DSS colitis mouse model: colon length and colon looseness. Type of data set: in vivo, C57BL/6J mice. The following applies: 100 mg/kg and 300 mg/kg oral, 7 days, 2.5% DSS. As for the experimental part: C57BL/6J (Jackson Lab) male mice weighing 25±2 g at 9 weeks of age were used, and all the mice were fed freely by providing standard experimental feed. The compound of Example 53 and LX1606 were dissolved in 0.25% methylcellulose (MC) solution, which was orally administered to mice at the dose of 100 and 300 mg/kg/time using a 1 mL syringe. The compound of Example 53 and LX1606 were administered for 7 days, starting one day prior to dextran sulfate sodium (DSS) administration. Before and after the administration, the samples of colon tissue were collected from each mouse treated with the compound of Example 53 or the control drug (LX1606) to confirm clinical symptoms. Data are expressed as mean±standard error of mean (SEM), and all statistical analyses were performed using GraphPad Prism (version 5.0, GraphPad Software, La Jolla, Calif.). Differences in mean between groups were statistically analyzed by two-way analysis of variance (ANOVA) and multiple comparison tests to reveal the differences between the experimental groups. P<0.05 was considered statistically significant.
Enteritis was induced in mice by freely drinking 2.5% DSS (molecular weight: 36,000-50,000 M.Wt; manufactured by MP Biomedicals, Canada) aqueous solution for 6 days, and the body weight, stiffness of the stool, and the presence or absence of bloody stool were observed daily from the start of the administration. […]

In data set [3] the target is TPH1 (tryptophan hydroxylase 1) (Homo sapiens (Human), UniProt P17752). Description: TPH1 inhibitor screening assay kit (BPS Bioscience), fluorescence. It counts as biochemical. As for the experimental part:
In order to confirm the inhibitory effect of the compound represented by formula 1 according to the present invention on the tryptophan hydroxylase activity, it was measured using a TPH1 (tryptophan hydroxylase 1) inhibitor screening assay kit (BPS Bioscience, Catalog #72053). The TPH1 inhibitor screening assay kit was used according to the manufacturer's manual.
Particularly, the synthesized compound was dissolved in DMSO, which was added to a 96-well microplate (10 ? /well), to which TPH1 enzyme was added (40 ? /well). Then, TPH1 reaction solution was added to the microplate (50 ? /well) and the microplate was shaded with aluminum foil. The microplate was transferred to 4° C. environment, shaken carefully and incubated for 4 hours. After adding a quench solution to the microplate (10 ? /well), the TPH1 activity was measured by reading the degree of fluorescence color development with a Flexstation3 microplate reader. At this time, the excitation spectrum was 300 nm and the emission spectrum was 360 nm.

Sequence of TPH1 (tryptophan hydroxylase 1) (P17752 whole entry): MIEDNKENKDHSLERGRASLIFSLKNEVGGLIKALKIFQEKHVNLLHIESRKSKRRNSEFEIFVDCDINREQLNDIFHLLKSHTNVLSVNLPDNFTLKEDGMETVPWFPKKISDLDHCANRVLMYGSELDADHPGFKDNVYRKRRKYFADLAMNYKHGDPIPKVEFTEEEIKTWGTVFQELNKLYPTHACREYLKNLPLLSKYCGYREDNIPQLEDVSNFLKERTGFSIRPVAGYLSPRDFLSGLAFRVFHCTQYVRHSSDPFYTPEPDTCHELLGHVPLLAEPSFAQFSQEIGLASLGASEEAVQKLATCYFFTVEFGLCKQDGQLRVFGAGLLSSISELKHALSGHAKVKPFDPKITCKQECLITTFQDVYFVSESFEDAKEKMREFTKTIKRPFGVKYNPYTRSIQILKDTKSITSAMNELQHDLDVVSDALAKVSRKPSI

In the case of `CCOC(=O)[C@@H](N)CC1CC=C(c2cc(O[C@H](c3ccc(Cl)cc3-n3ccc(C)n3)C(F)(F)F)nc(N)n2)CC1` (stereo partly drawn) [Example 53, ethyl (2S)-2-amino-3-(4-(2-amino-6-((R)-1-(4-chloro-2-(3-methyl-1H-pyrazole-1-yl)phenyl)-2,2,2-trifluoroethoxy)pyrimidine-4-yl)cyclohex-3-ene-1-yl)propionate hippurate], the colon permeability entry with DSS colitis [1] is recorded as “lower permeability was observed on average”.

On to `CCOC(=O)[C@@H](N)Cc1ccc(-c2cc(O[C@H](c3ccc(Cl)cc3-n3ccc(C)n3)C(F)(F)F)nc(N)n2)cc1` [LX1606, (2S)-2-Amino-3-[4-[2-amino-6-[[(1R)-1-[4-chloro-2-(3-methylpyrazol-1-yl)phenyl]-2,2,2-trifluoroethyl]oxy]pyrimidin-4-yl]phenyl]propionic acid ethyl ester], for which the “colon length compared with vehicle group” value in the data set with DSS colitis [2] is recorded as “not longer than that of the group treated with vehicle”.

What is called pIC50 is −log10 of the IC50, conventionally taken in molar units. Higher therefore signals a small IC50. On to `Cc1ccn(-c2cc(Cl)ccc2[C@@H](Oc2ncnc3c(-c4ccc(C[C@H](N)C(=O)O)cc4)csc23)C(F)(F)F)n1` [Example 8, (S)-2-amino-3-(4-(4-((R)-1-(4-chloro-2-(3-methyl-1H-pyrazole-1-yl)phenyl)-2,2,2-trifluoroethoxy)thieno[3,2-d]pyrimidine-7-yl)phenyl)propionic acid hydrochloride], for which the pIC50 in data set [3] (TPH1) was 7.44; in data set [3] (TPH1 enzyme, 4 hours at 4° C., ex 300 nm / em 360 nm), 7.44.
